Molecular target: T1, CA-IX (Homo sapiens, UniProt Q16790)
T1 construct: His tag (C); purchased R&D Systems Inc. 2188-CA; host or cells: mouse myeloma cell line NS0
Test: CA-IX combinatorial library screening, competitive fluorescence-based assay with dansylamide (DNSA)
Assay type: binding
Details: 1 h; Table 1, Libraries 1-3; sample concentrations 100 nM and 1000 nM, DNSA 200 μM; screening at 1 μM; read-out: In Vitro Binding Assay (Library Screening)
Summary of the method: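 Recombinant His-tagged CA-IX (NS0-expressed) in phosphate buffer pH 7.4 with test compound at 100 nM or 1000 nM; competitive displacement started with 200 μM dansylamide (stock concentration). After 1 h at 25 °C, fluorescence read at 460 nm (excitation 290 nm).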

| inhibition at 1 µM [%] | Structure (SMILES) |
| --- | --- |
| < 40 | CC(C)C[C@@H](C(=O)NCc1ccccc1)n1cc(COc2ccc3nc(S(N)(=O)=O)sc3c2)nn1 [DIIK118] |

Same assay, conditions: 1 h; Table 2, Libraries 4-7; sample concentrations 100 nM and 1000 nM, DNSA 200 μM; screening at 1 μM; read-out: In Vitro Binding Assay (Library (Screening))

| inhibition at 1 µM [%] | Structure (SMILES) |
| --- | --- |
| < 40 | COC(=O)C(C)NC(=O)[C@H](C(C)C)n1cc(COc2ccc3nc(S(N)(=O)=O)sc3c2)nn1 (stereo partly drawn) [DHK-2-34] |
| < 40 | CC(C)[C@@H](C(=O)NCc1ccccn1)n1cc(COc2ccc3nc(S(N)(=O)=O)sc3c2)nn1 [DHK-2-35] |
| < 40 | CC(C)[C@@H](C(=O)NC1CCCCC1)n1cc(COc2ccc3nc(S(N)(=O)=O)sc3c2)nn1 [DHK-2-36] |
| < 40 | CC(C)[C@@H](C(=O)NCC1CC1)n1cc(COc2ccc3nc(S(N)(=O)=O)sc3c2)nn1 [DHK-2-37] |
| < 40 | CC(C)[C@@H](C(=O)NCCCO)n1cc(COc2ccc3nc(S(N)(=O)=O)sc3c2)nn1 [DHK-2-38] |
| < 40 | Cc1onc(-c2ccccc2)c1CNC(=O)[C@H](C(C)C)n1cc(COc2ccc3nc(S(N)(=O)=O)sc3c2)nn1 [DHK-2-39] |
| < 40 | CC(C)[C@@H](C(=O)N1CCN(CCO)CC1)n1cc(COc2ccc3nc(S(N)(=O)=O)sc3c2)nn1 [DHK-2-42] |
| < 40 | CC(C)[C@@H](C(=O)N[C@@H]1c2ccccc2C[C@@H]1O)n1cc(COc2ccc3nc(S(N)(=O)=O)sc3c2)nn1 [DHK-2-43] |
| < 40 | CC(C)[C@@H](C(=O)N1CCC(N2CCCC2)CC1)n1cc(COc2ccc3nc(S(N)(=O)=O)sc3c2)nn1 [DHK-2-45] |
| < 40 | CC(C)[C@@H](C(=O)NCCN1CCN(Cc2ccccc2)CC1)n1cc(COc2ccc3nc(S(N)(=O)=O)sc3c2)nn1 [DHK-2-47] |
| < 40 | NS(=O)(=O)c1nc2ccc(OCc3cn([C@@H](Cc4ccccc4)C(=O)NCc4ccc(F)cc4)nn3)cc2s1 [DHK-2-52] |
| < 40 | CN(Cc1ccccc1)C(=O)[C@H](Cc1ccccc1)n1cc(COc2ccc3nc(S(N)(=O)=O)sc3c2)nn1 [DHK-2-53] |
| < 40 | CN(C)Cc1ccc(CSCCNC(=O)[C@H](Cc2ccccc2)n2cc(COc3ccc4nc(S(N)(=O)=O)sc4c3)nn2)o1 [DHK-2-54] |
| < 40 | NS(=O)(=O)c1nc2ccc(OCc3cn([C@@H](Cc4ccccc4)C(=O)N4CCN(c5ncccn5)CC4)nn3)cc2s1 [DHK-2-55] |
| < 40 | NS(=O)(=O)c1nc2ccc(OCc3cn([C@@H](Cc4ccccc4)C(=O)NCc4ccc(-c5ccccn5)s4)nn3)cc2s1 [DHK-2-56] |
| < 40 | NS(=O)(=O)c1nc2ccc(OCc3cn([C@@H](Cc4ccccc4)C(=O)N4CCC[C@@H]4CO)nn3)cc2s1 [DHK-2-57] |
| < 40 | NS(=O)(=O)c1nc2ccc(OCc3cn([C@@H](Cc4ccccc4)C(=O)N4CCN(c5ccccn5)CC4)nn3)cc2s1 [DHK-2-58] |
| < 40 | CCOC(=O)C(Cc1ccccc1)NC(=O)[C@H](Cc1ccccc1)n1cc(COc2ccc3nc(S(N)(=O)=O)sc3c2)nn1 (stereo partly drawn) [DHK-2-59] |
| < 40 | COC(=O)C(NC(=O)[C@H](Cc1ccccc1)n1cc(COc2ccc3nc(S(N)(=O)=O)sc3c2)nn1)C(C)C (stereo partly drawn) [DHK-2-60] |
| < 40 | NS(=O)(=O)c1nc2ccc(OCc3cn([C@@H](Cc4ccccc4)C(=O)NCc4ccccn4)nn3)cc2s1 [DHK-2-62] |
| < 40 | NS(=O)(=O)c1nc2ccc(OCc3cn([C@@H](Cc4ccccc4)C(=O)NC4CCCCC4)nn3)cc2s1 [DHK-2-63] |
| < 40 | NS(=O)(=O)c1nc2ccc(OCc3cn([C@@H](Cc4ccccc4)C(=O)NCC4CC4)nn3)cc2s1 [DHK-2-64] |
| < 40 | NS(=O)(=O)c1nc2ccc(OCc3cn([C@@H](Cc4ccccc4)C(=O)NCCCO)nn3)cc2s1 [DHK-2-65] |
| < 40 | CCOC(=O)CCN(Cc1ccco1)C(=O)[C@H](Cc1ccccc1)n1cc(COc2ccc3nc(S(N)(=O)=O)sc3c2)nn1 [DHK-2-67] |
| < 40 | NS(=O)(=O)c1nc2ccc(OCc3cn([C@@H](Cc4ccccc4)C(=O)N4CCN(CCO)CC4)nn3)cc2s1 [DHK-2-69] |
| < 40 | NS(=O)(=O)c1nc2ccc(OCc3cn([C@@H](Cc4ccccc4)C(=O)N[C@@H]4c5ccccc5C[C@@H]4O)nn3)cc2s1 [DHK-2-70] |
| < 40 | NS(=O)(=O)c1nc2ccc(OCc3cn([C@@H](Cc4ccccc4)C(=O)N4CCC(N5CCCC5)CC4)nn3)cc2s1 [DHK-2-72] |
| < 40 | Cn1c(CNC(=O)[C@H](Cc2ccccc2)n2cc(COc3ccc4nc(S(N)(=O)=O)sc4c3)nn2)nc2ccccc21 [DHK-2-73] |
| < 40 | NS(=O)(=O)c1nc2ccc(OCc3cn([C@@H](Cc4ccccc4)C(=O)NCCN4CCN(Cc5ccccc5)CC4)nn3)cc2s1 [DHK-2-74] |

Same assay, conditions: Table 2, Libraries 4-7; sample concentrations 100 nM and 1000 nM, DNSA 200 μM; screening at 1 μM

| In Vitro Binding Assay (Library Screening) | Structure (SMILES) |
| --- | --- |
| √ | CCOC(=O)C1CCN(C(=O)[C@H](C(C)C)n2cc(COc3ccc4nc(S(N)(=O)=O)sc4c3)nn2)CC1 [DHK-2-41] |
| √ | CC(C)[C@@H](C(=O)NCC1COc2ccccc2O1)n1cc(COc2ccc3nc(S(N)(=O)=O)sc3c2)nn1 (stereo partly drawn) [DHK-2-44] |
| √ | NS(=O)(=O)c1nc2ccc(OCc3cn([C@@H](Cc4ccccc4)C(=O)NCc4ccc(C(F)(F)F)cc4)nn3)cc2s1 [DHK-2-51] |
| √ | COC(=O)C(C)NC(=O)[C@H](Cc1ccccc1)n1cc(COc2ccc3nc(S(N)(=O)=O)sc3c2)nn1 (stereo partly drawn) [DHK-2-61] |
| √ √ | Cc1onc(-c2ccccc2)c1CNC(=O)[C@H](Cc1ccccc1)n1cc(COc2ccc3nc(S(N)(=O)=O)sc3c2)nn1 [DHK-2-66] |
| √ | CCOC(=O)C1CCN(C(=O)[C@H](Cc2ccccc2)n2cc(COc3ccc4nc(S(N)(=O)=O)sc4c3)nn2)CC1 [DHK-2-68] |
| √ | NS(=O)(=O)c1nc2ccc(OCc3cn([C@@H](Cc4ccccc4)C(=O)NCC4COc5ccccc5O4)nn3)cc2s1 (stereo partly drawn) [DHK-2-71] |

Molecular target: T1, CA-IX
Test: Binding affinity (Kd) determination for CA-IX inhibitors, DNSA fluorescence competition assay, Scatchard plots
Details: Table 3
Description: General. […] The human red blood cells were obtained from Research Blood Components, LLC. All absorbance measurements were performed on a SPECTRA MAX M2 plate reader at 25° C. The LC/MS analyses were performed on an Agilent 1100 series LC/MSD (SL) using a 30×2.1 mm Zorbax C8 column with a Phenomenex C18 pre-column. Compound detection was accomplished by electrospray mass spectroscopy in positive selected ion mode (LC/MS-SIM). The elution solvents were acetonitrile and water, contained 0.05% TFA. Nuclear magnetic resonance (NMR) spectra were obtained on a Bruker AMX 300 MHz spectrometer or a Varian 400. 19F NMR spectra were recorded on a Bruker AMX 282.35 MHz or a Varian 400 spectrometer. The mass spectra were recorded on an Agilent 1100 series LC/MSD with electrospray mass spectroscopic detection. Flash column chromatography was performed on Merck silica gel (40-63 μm) using the solvent system indicated. The radiochemical and chemical purities were analyzed by RP-HPLC.
General Procedure of Binding Affinity (Ka) Determination for CA-IX Inhibitors
The assay was based on the observation that the only fluorescence signal detected at 460 nm upon excitation at 290 nm, an absorption […] for DNSA, was that of the DNSA.CA complex. […] The latter were developed for each test compound using mass balance for calculating the concentration of CA bound to DNSA [DNSA.CA], bound to the non-fluorescent sample [CA.Inh] and free CA [CA] in solution. The Kd values were determined from Scatchard plots using the equation below as described by Whitesides et al. [CA.Inh]/[CA]tot.[Inh]=K11^inh−K11^inh{[CA.Inh]+[CA.DNSA]}/([CA]tot)
The terms [CA.DNSA], [CA.Inh], and free CA were calculated using the mass balance based on the known values for the dissociation constant of CA.DNSA and the total concentration of CA in each reaction.

| Kd [nM] | Structure (SMILES) |
| --- | --- |
| 11 | CC(C)C(C(=O)N[C@@H](Cc1ccc(OC(CO)CF)cc1)C(=O)O)n1cc(COc2ccc3nc(S(N)(=O)=O)sc3c2)nn1 (single isomer, unassigned) [GGC121A] |
| 13 | CC(C)C(C(=O)N[C@@H](Cc1ccc(OC(CO)CF)cc1)C(=O)O)n1cc(COc2ccc3nc(S(N)(=O)=O)sc3c2)nn1 (single isomer, unassigned) [GGC121B] |
| 10 | NS(=O)(=O)c1nc2cc(OCc3cn(C(CCO)C(=O)NC(CSCc4cccc(OCCF)c4)C(=O)O)nn3)ccc2s1 (single isomer, unassigned) [VM2-107a] |
| 5 | NS(=O)(=O)c1nc2cc(OCc3cn(C(CCO)C(=O)NC(CSCc4cccc(OCCF)c4)C(=O)O)nn3)ccc2s1 (single isomer, unassigned) [VM2-107b] |
| 5 | CC(C)C(C(=O)NC(COCc1cccc(OCCO)c1)C(=O)O)n1cc(COc2ccc3nc(S(N)(=O)=O)sc3c2)nn1 (single isomer, unassigned) [VM3-165A] |
| 11 | CC(C)C(C(=O)NC(COCc1cccc(OCCO)c1)C(=O)O)n1cc(COc2ccc3nc(S(N)(=O)=O)sc3c2)nn1 (single isomer, unassigned) [VM3-165B] |
| 5 | NS(=O)(=O)c1nc2ccc(OCc3cn(C(Cc4ccc(F)cc4)C(=O)NC(COCc4cccc(OCCO)c4)C(=O)O)nn3)cc2s1 (single isomer, unassigned) [VM3-167A] |
| 10 | NS(=O)(=O)c1nc2ccc(OCc3cn(C(Cc4ccc(F)cc4)C(=O)NC(COCc4cccc(OCCO)c4)C(=O)O)nn3)cc2s1 (single isomer, unassigned) [VM3-167B] |
| 5 | CC(C)C(C(=O)NC(Cc1ccc(OCC(O)CF)cc1)C(=O)O)n1cc(COc2ccc3nc(S(N)(=O)=O)sc3c2)nn1 (single isomer, unassigned) [VM4047a] |
| 11 | CC(C)[C@H](C(=O)N[C@H](Cc1ccc(OCC(O)CF)cc1)C(=O)O)n1cc(COc2ccc3nc(S(N)(=O)=O)sc3c2)nn1 (single isomer, unassigned) [VM4047b] |
| 17 | NS(=O)(=O)c1nc2ccc(OCc3cn([C@@H](Cc4ccc(OCCF)cc4)C(=O)O)nn3)cc2s1 [BD2-09, (S)-3-(4-(2-fluoroethoxy)phenyl)-2-(4-((2-sulfamoylbenzo[d]thiazol-6-yloxy)methyl)-1H-1,2,3-triazol-1-yl)propanoic acid] |
